Measured values from ChEMBL document CHEMBL1129887, “Dicarboxylic acid inhibitors of phospholipase A2” (Bioorg Med Chem Lett, 1997).

Columns and labels:
Mus musculus [1] = assay: (§1) Antiinflammatory activity of compound was measured in the phorbol-ester induced mouse chronic ear edema assay; format: functional
[2] = biological target: T1, Phospholipase A2, membrane associated (Homo sapiens, UniProt P14555); assay: Compound was measured for the inhibition of human platelet PLA2 (HP-PLA2)
T1 sequence (P14555 whole entry): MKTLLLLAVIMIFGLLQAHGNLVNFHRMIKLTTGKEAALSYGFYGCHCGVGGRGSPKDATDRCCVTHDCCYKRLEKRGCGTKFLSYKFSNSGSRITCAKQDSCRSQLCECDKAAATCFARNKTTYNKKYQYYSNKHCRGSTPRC

Mus musculus [3] = assay: as §1; format: functional; remark: listed apart in the source

Row | IC50 [2] | Compound | ED50 (Mus musculus [1]) | ED50 (Mus musculus [3])
1 | 17 µM | C/C(=C\C(=O)O)C(=Cc1ccc2cc3c(cc2c1)C(C)(C)CCC3(C)C)c1cccc(C(=O)O)c1 | 9.37 ug ear-1 dose-1 | –
2 | 2 µM | C/C(=C\C(=O)O)C(=CCCc1ccc2cc3c(cc2c1)C(C)(C)CCC3(C)C)c1cccc(C(=O)O)c1 | 89 ug ear-1 dose-1 | –
3 | 4 µM | C/C(=C\C(N)=O)C(=Cc1ccc2cc3c(cc2c1)C(C)(C)CCC3(C)C)c1cccc(C(N)=O)c1 | 186 ug ear-1 dose-1 | –
4 | – | C/C(=C\C(=O)O)C(=Cc1ccc2cc(OCc3ccccc3)c(OCc3ccccc3)cc2c1)c1cccc(C(=O)O)c1 | 208 ug ear-1 dose-1 | –
5 | 8 µM | C/C(=C\C(=O)O)C(=CCCc1ccc(C23C[C@H]4C[C@@H](C2)C[C@@H](C3)C4)c(O)c1)c1cccc(C(=O)O)c1 | – | –
6 | – | CC1=C(/C=C/C(C)=C/C=C(/C(C)=C/C(=O)O)c2cccc(C(=O)O)c2)C(C)(C)CCC1 | 160 ug ear-1 dose-1 | –
7 | 7 µM | CCCCCCCCCCOc1ccc(C=C(/C(C)=C/C(=O)O)c2cccc(C(=O)O)c2)cc1 | – | –
8 | 17 µM | C/C(=C\C(=O)O)C(=Cc1ccc2cc(OCCCc3ccccc3)ccc2c1)c1cccc(C(=O)O)c1 | 30 ug ear-1 dose-1 | 90 ug ear-1 dose-1
9 | 14 µM | CCCCCCCCCCOc1ccc2cc(C=C(/C(C)=C/C(=O)O)c3cccc(C(=O)O)c3)ccc2c1 | 31 ug ear-1 dose-1 | –
